Results published in patent publication US20260224547A1, “COMPOSITIONS COMPRISING ANATABINE AND USES THEREOF” (Philip Morris Products S.A., priority 2021, published 2026).
Counter-ions that a name gives are not always drawn.

Assays:
NRF2 = NRF2 luciferase assay (NRF2/ARE reporter cell line); format: cell-based, human; settings: for maximum log 2-fold change of NRF2 activation: at 12.5 μM for sulforaphane, 125 μM and 250 μM for DMF, 1000 μM for anatabine; for effect on the NRF2 pathway: FIG. 4, tobacco alkaloids
From the text: A HEK-293 NRF2/ARE luciferase reporter cell line was acquired from Signosis (USA). According to Signosis, this NRF2 luciferase reporter stable cell line had been stably transfected with pTA-ARE-luciferase reporter vector, which contains 4 repeats of antioxidant response binding sites, a minimal promoter upstream of the firefly luciferase coding region, along with a hygromycin expression vector. Following selection, the hygromycin resistant clones were subsequently screened for TBHQ-induced luciferase activity. The clone with the highest fold induction was selected and expanded to produce this stable cell line.
4, 8 or 24 hours after stimulation of the NRF2 reporter cells luminescence was measured using a FLUOstar Omega plate reader.

NRF2 reporter cells = test: Cell viability measured with ATP assay alongside NRF2 translocation (FIG. 4 to 7); settings: for cell viability, percentage of the vehicle control: human
From the text: FIGS. 5A to 5C: bar and line graphs showing NRF2 translocation presented as log 2 fold change compared to vehicle control (bars) and cell viability measured with ATP assay and presented as a percentage of the vehicle control (line) for anatabine (FIG. 5A), dimethyl fumarate (AlfaAesar) (FIG. 5B), and nornicotine (FIG. 5C).
FIGS. 6A to 6C: bar graphs showing NRF2 translocation presented as log 2 fold change compared to vehicle control (bars) and cell viability measured with ATP assay and presented as a percentage of the vehicle control (line) for anatabine (FIG. 6A), dimethyl fumarate (Sigma) (FIG. 6B), and sulforaphane (FIG. 6C).
FIGS. 7A and […]: bar graphs showing NRF2 translocation presented as log 2 fold change compared to vehicle control (bars) and cell viability measured with ATP assay and presented as a percentage of the vehicle control (line) for cotinine (FIG. 7A) and nicotine (FIG. 7B).

## COC(=O)/C=C/C(=O)OC [DMF, dimethyl fumarate]
NRF2; 125 μM, DMF from AlfaAesar
  NRF2 activation, log 2-fold change: 6.74
NRF2; 125 μM, DMF from Sigma
  NRF2 activation, log 2-fold change: 6.90
NRF2; 250 μM, DMF from AlfaAesar
  NRF2 activation, log 2-fold change: 6.81
NRF2; 250 μM, DMF from Sigma
  NRF2 activation, log 2-fold change: 6.67
NRF2
  maximum log 2-fold change of NRF2 activation: 6 to 7
NRF2 reporter cells
  cell viability at higher concentrations: significantly reduced
NRF2 reporter cells; 500 μM
  cell viability, percentage of the vehicle control: ~0%

## c1cncc([C@@H]2CCCCN2)c1 [anabasine]
NRF2
  effect on the NRF2 pathway: do not substantially affect

## CN1C(=O)CC[C@H]1c1cccnc1 [cotinine]
NRF2
  effect on the NRF2 pathway: do not substantially affect
NRF2 reporter cells; 500 μM
  cell viability, percentage of the vehicle control: below 85%
NRF2 reporter cells; 1000 μM
  cell viability, percentage of the vehicle control: below 85%

## CN1CCCC1c1cccnc1 (centres unmarked) [nicotine]
NRF2
  effect on the NRF2 pathway: do not substantially affect

## c1cncc([C@@H]2CCCN2)c1 [nornicotine]
NRF2
  effect on the NRF2 pathway: do not substantially affect

## C[S+]([O-])CCCCN=C=S (centres unmarked) [sulforaphane]
NRF2; 0.78 to 50 μM (P<0.01)
  NRF2 activation, log 2-fold change: increase
NRF2
  maximum log 2-fold change of NRF2 activation: approximately 5
NRF2 reporter cells
  cell viability at higher concentrations: significantly reduced
NRF2 reporter cells; 25 μM
  cell viability, percentage of the vehicle control: around 50%
